Measurements reported in patent US8232308B2, “Methods for treating a disease in which Rho kinase is involved” (UBE Industries, Ltd., priority 2003, dated 2012).
Where a name gives a salt, the structure may show the parent alone.

Row | Compound | melting point
1 | CC(C)(N)c1ccc(-c2ccc3[nH]ncc3c2CCO)cc1 (as salt: hydrochloride) [Compound 5-32, 5-[4-(1-Amino-1-methylethyl)phenyl]-4-(2-hydroxy-ethyl)-1H-indazole dihydrochloride] | 202 to 203 °C (dec.)
2 | CC(C)(N)c1ccc(-c2ccc3[nH]ncc3c2C#N)cc1 (as salt: hydrochloride) [Compound 5-36, 5-[4-(1-Amino-1-methylethyl)phenyl]-4-cyano-1H-indazole monohydrochloride] | 270 to 272 °C
3 | CC(C)(N)c1ccc(-c2ccc3cn[nH]c3c2)cc1 (as salt: hydrochloride) [Compound 5-37, 6-[4-(1-Amino-1-methylethyl)phenyl]-1H-indazole dihydrochloride] | 265 to 269 °C
4 | CC(=O)n1ncc2ccc(-c3ccc(C(C)(C)N)cc3)cc21 (as salt: hydrochloride) [Compound 5-38, 1-Acetyl-6-[4-(1-amino-1-methylethyl)phenyl]-1H-indazole dihydrochloride] | 225 to 230 °C
5 | CC(C)(N)c1ccc(-c2ccc3[nH]ncc3c2-n2cccc2)cc1 (as salt: hydrochloride) [Compound 5-39, 5-[4-(1-Amino-1-methylethyl)phenyl]-4-(pyrrol-1-yl)-1H-indazole dihydrochloride] | 244 to 247 °C (dec.)
6 | CC(C)Oc1c(-c2ccc(C(C)(C)N)cc2)ccc2[nH]ncc12 (as salt: hydrochloride) [Compound 5-40, 5-[4-(1-Amino-1-methylethyl)phenyl]-4-isopropoxy-1H-indazole dihydrochloride] | 242 to 246 °C (dec.)
7 | CC(C)(N)c1ccc(-c2ccc3[nH]ncc3c2N2CCCCC2)cc1 (as salt: hydrochloride) [Compound 5-41, 5-[4-(1-Amino-1-methylethyl)phenyl]-4-(piperidin-1-yl)-1H-indazole trihydrochloride] | 205 to 208 °C (dec.)
8 | CC(C)(N)c1ccc(-c2ccc3[nH]ncc3c2N2CCCC2)cc1 (as salt: hydrochloride) [Compound 5-42, 5-[4-(1-Amino-1-methylethyl)phenyl]-4-(pyrrolidin-1-yl)-1H-indazole trihydrochloride] | 218 to 224 °C (dec.)
9 | CC(C)(N)c1ccc(-c2ccc3[nH]ncc3c2N2CCOCC2)cc1 (as salt: hydrochloride) [Compound 5-43, 5-[4-(1-Amino-1-methylethyl)phenyl]-4-(morpholin-4-yl)-1H-indazole trihydrochloride] | 268 to 272 °C (dec.)
10 | COc1c(-c2ccc(C(C)(C)N)cc2)ccc2[nH]ncc12 (as salt: hydrochloride) [Compound 5-44, 5-[4-(1-Amino-1-methylethyl)phenyl]-4-methoxy-1H-indazole dihydrochloride] | 258 to 261 °C (dec.)
11 | COc1c(-c2ccc(C(C)(C)N)cn2)ccc2[nH]ncc12 (as salt: hydrochloride) [Compound 5-45, 5-[5-(1-Amino-1-methylethyl)pyridin-2-yl]-4-methoxy-1H-indazole trihydrochloride] | 195 to 201 °C (dec.)
12 | CCCCOc1c(-c2ccc(C(C)(C)N)cc2)ccc2[nH]ncc12 (as salt: hydrochloride) [Compound 5-55, 5-[4-(1-Amino-1-methylethyl)phenyl]-4-n-butoxy-1H-indazole dihydrochloride] | 227 to 229 °C (dec.)
13 | C=C(C)c1n[nH]c2ccc(-c3ccc(C(C)(C)N)cc3)cc12 (as salt: trifluoroacetate) [Compound 5-15, 5-[4-(1-Amino-1-methylethyl)phenyl]-3-(1-methyl-vinyl)-1H-indazole monotrifluoroacetate] | 221 to 225 °C (dec.)
14 | CN(C)/C=C/C(=O)c1c(-c2ccc(C(C)(C)NC(=O)OC(C)(C)C)cc2)ccc2nn(C3CCCCO3)cc12 (centres unmarked) [Compound 29, 5-[4-(1-tert-butoxycarbonylamino-1-methylethyl)phenyl]-4-(3-dimethylaminoacryloyl)-2-(tetra-hydropyran-2-yl)-2H-indazole] | 191 to 194 °C

Results, then the molecule that gave them:

Row | melting point | Compound
15 | 195 to 203 °C (dec.) | COc1c(-c2ccc(C3(N)CCCC3)cn2)ccc2[nH]ncc12 (as salt: hydrochloride) [Compound 5-46, 5-[5-(1-Aminocyclopentyl)pyridin-2-yl]-4-methoxy-1H-indazole trihydrochloride]
16 | 198 to 201 °C | CCOc1c(-c2ccc(C(C)(C)N)cn2)ccc2[nH]ncc12 (as salt: hydrochloride) [Compound 5-47, 5-[5-(1-Amino-1-methylethyl)pyridin-2-yl]-4-ethoxy-1H-indazole trihydrochloride]
17 | 194 to 198 °C (dec.) | CC(C)(N)c1ccc(-c2ccc3[nH]ncc3c2O)cc1 (as salt: hydrochloride) [Compound 5-48, 5-[4-(1-Amino-1-methylethyl)phenyl]-4-hydroxy-1H-indazole dihydrochloride]
18 | 248 to 256 °C (dec.) | CCOc1c(-c2ccc(C(C)(C)N)cc2)ccc2[nH]ncc12 (as salt: hydrochloride) [Compound 5-49, 5-[4-(1-Amino-1-methylethyl)phenyl]-4-ethoxy-1H-indazole dihydrochloride]
19 | 211 to 213 °C (dec.) | CC(C)Oc1c(-c2ccc(C(C)(C)N)cn2)ccc2[nH]ncc12 (as salt: hydrochloride) [Compound 5-50, 5-[5-(1-Amino-1-methylethyl)pyridin-2-yl]-4-isopropoxy-1H-indazole trihydrochloride]
20 | 204 to 206 °C (dec.) | CCC(N)(CC)c1ccc(-c2ccc3[nH]ncc3c2OC)nc1 (as salt: hydrochloride) [Compound 5-51, 5-[5-(1-Amino-1-ethylpropyl)pyridin-2-yl]-4-methoxy-1H-indazole trihydrochloride]
21 | 237 to 243 °C (dec.) | CCCOc1c(-c2ccc(C(C)(C)N)cc2)ccc2[nH]ncc12 (as salt: hydrochloride) [Compound 5-52, 5-[4-(1-Amino-1-methylethyl)phenyl]-4-n-propoxy-1H-indazole dihydrochloride]
22 | 227 to 230 °C (dec.) | CC(C)(N)c1ccc(-c2ccc3[nH]ncc3c2OC(F)F)cc1 (as salt: hydrochloride) [Compound 5-53, 5-[4-(1-Amino-1-methylethyl)phenyl]-4-difluoro-methoxy-1H-indazole dihydrochloride]
23 | 205 to 207 °C (dec.) | C=CCOc1c(-c2ccc(C(C)(C)N)cc2)ccc2[nH]ncc12 (as salt: hydrochloride) [Compound 5-57, 4-Allyloxy-5-[4-(1-amino-1-methylethyl)phenyl]-1H-indazole dihydrochloride]
24 | 194 to 198 °C (dec.) | CCCOc1c(-c2ccc(C(C)(C)N)cn2)ccc2[nH]ncc12 (as salt: hydrochloride) [Compound 5-58, 5-[5-(1-Amino-1-methylethyl)pyridin-2-yl]-4-n-propoxy-1H-indazole trihydrochloride]
25 | 170 to 173 °C | CC(C)(N)c1ccc(-c2ccc3[nH]ncc3c2OC(F)F)nc1 (as salt: hydrochloride) [Compound 5-59, 5-[5-(1-Amino-1-methylethyl)pyridin-2-yl]-4-difluoromethoxy-1H-indazole trihydrochloride]
26 | 200 to 202 °C (dec.) | CCOc1c(-c2ccc(C(N)(CC)CC)cn2)ccc2[nH]ncc12 (as salt: hydrochloride) [Compound 5-60, 5-[5-(1-Amino-1-ethylpropyl)pyridin-2-yl]-4-ethoxy-1H-indazole trihydrochloride]
27 | 266 to 269 °C (dec.) | CC(C)(N)c1ccc(-c2ccc3[nH]ncc3c2-c2ccncc2)cc1 (as salt: hydrochloride) [Compound 5-61, 5-[4-(1-Amino-1-methylethyl)phenyl]-4-(pyridin-4-yl)-1H-indazole trihydrochloride]
28 | 210 to 214 °C (dec.) | CC(C)(N)c1ccc(-c2ccc3[nH]ncc3c2-c2ccccn2)cc1 (as salt: hydrochloride) [Compound 5-63, 5-[4-(1-Amino-1-methylethyl)phenyl]-4-(pyridin-2-yl)-1H-indazole trihydrochloride]
29 | 259 to 267 °C (dec.) | CC(C)(N)c1ccc(-c2ccc3[nH]ncc3c2-c2cn[nH]c2)cc1 (as salt: hydrochloride) [Compound 5-64, 5-[4-(1-Amino-1-methylethyl)phenyl]-4-(pyrazol-4-yl)-1H-indazole trihydrochloride]
30 | 212 to 214 °C (dec.) | CC(C)(N)c1ccc(-c2ccc3[nH]ncc3c2-c2cnco2)cc1 (as salt: hydrochloride) [Compound 5-66, 5-[4-(1-Amino-1-methylethyl)phenyl]-4-(oxazol-5-yl)-1H-indazole dihydrochloride]
31 | 256 to 258 °C (dec.) | CC(C)(N)c1ccc(-c2ccc3[nH]ncc3c2-c2ccno2)cc1 (as salt: hydrochloride) [Compound 5-68, 5-[4-(1-Amino-1-methylethyl)phenyl]-4-(isoxazol-5-yl)-1H-indazole dihydrochloride]
32 | 255 to 260 °C (dec.) | CC(C)(N)c1ccc(-c2ccc3[nH]ncc3c2O)nc1 (as salt: hydrochloride) [Compound 5-69, 5-[5-(1-Amino-1-methylethyl)pyridin-2-yl]-4-hydroxy-1H-indazole trihydrochloride]
33 | 203 to 205 °C (dec.) | CC(C)(N)c1ccc(-c2ccc3[nH]ncc3c2OC2CC2)nc1 (as salt: hydrochloride) [Compound 5-70, 5-[5-(1-Amino-1-methylethyl)pyridin-2-yl]-4-cyclo-propyloxy-1H-indazole trihydrochloride]
34 | 207 to 209 °C (dec.) | CCC(N)(CC)c1ccc(-c2ccc3[nH]ncc3c2OC2CC2)nc1 (as salt: hydrochloride) [Compound 5-71, 5-[5-(1-Amino-1-ethylpropyl)pyridin-2-yl]-4-cyclo-propyloxy-1H-indazole trihydrochloride]
35 | 234 to 237 °C | CCC(N)(CC)c1ccc(-c2ccc3[nH]ncc3c2OC(F)F)cc1 (as salt: hydrochloride) [Compound 5-72, 5-[4-(1-Amino-1-ethylpropyl)phenyl]-4-difluoro-methoxy-1H-indazole dihydrochloride]
